Assay results from ChEMBL document CHEMBL3808381, “Structural Requirements and Docking Analysis of Amidine-Based Sphingosine Kinase 1 Inhibitors Containing Oxadiazoles” (ACS Med Chem Lett, 2016).

Legend:
Sphingosine kinase 1 = Sphingosine kinase 1 (Homo sapiens, UniProt Q9NYA1); assay: Inhibition of human SphK1 expressed in baculovirus infected in Sf9 cells using D-erythro-sphingosine as substrate and [gamma-32P]ATP by scintillation counting method
Sphingosine kinase 2 = molecular target: T1, Sphingosine kinase 2 (Homo sapiens, UniProt Q9NRA0); assay: Inhibition of human SphK2 expressed in baculovirus infected in Sf9 cells using D-erythro-sphingosine as substrate and [gamma-32P]ATP by scintillation counting method
T1 sequence (Q9NRA0 whole entry): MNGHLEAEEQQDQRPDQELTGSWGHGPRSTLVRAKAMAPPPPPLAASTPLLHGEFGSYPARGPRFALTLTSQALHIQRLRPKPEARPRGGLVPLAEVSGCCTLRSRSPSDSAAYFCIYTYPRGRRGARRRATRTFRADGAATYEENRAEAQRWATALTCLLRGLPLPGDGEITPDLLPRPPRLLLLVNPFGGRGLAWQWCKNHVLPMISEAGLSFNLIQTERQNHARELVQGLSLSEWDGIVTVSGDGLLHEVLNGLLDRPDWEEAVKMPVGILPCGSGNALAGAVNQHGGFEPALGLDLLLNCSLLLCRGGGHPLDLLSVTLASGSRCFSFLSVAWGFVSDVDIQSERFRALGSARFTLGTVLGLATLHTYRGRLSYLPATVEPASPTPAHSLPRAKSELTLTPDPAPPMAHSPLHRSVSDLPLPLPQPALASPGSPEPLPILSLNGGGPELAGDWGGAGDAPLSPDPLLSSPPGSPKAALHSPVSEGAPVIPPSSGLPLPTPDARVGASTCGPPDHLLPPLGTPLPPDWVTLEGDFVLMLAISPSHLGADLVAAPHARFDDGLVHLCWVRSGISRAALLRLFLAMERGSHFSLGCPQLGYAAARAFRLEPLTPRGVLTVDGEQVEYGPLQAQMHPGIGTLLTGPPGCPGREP

Sequence of Sphingosine kinase 1 (Q9NYA1 whole entry): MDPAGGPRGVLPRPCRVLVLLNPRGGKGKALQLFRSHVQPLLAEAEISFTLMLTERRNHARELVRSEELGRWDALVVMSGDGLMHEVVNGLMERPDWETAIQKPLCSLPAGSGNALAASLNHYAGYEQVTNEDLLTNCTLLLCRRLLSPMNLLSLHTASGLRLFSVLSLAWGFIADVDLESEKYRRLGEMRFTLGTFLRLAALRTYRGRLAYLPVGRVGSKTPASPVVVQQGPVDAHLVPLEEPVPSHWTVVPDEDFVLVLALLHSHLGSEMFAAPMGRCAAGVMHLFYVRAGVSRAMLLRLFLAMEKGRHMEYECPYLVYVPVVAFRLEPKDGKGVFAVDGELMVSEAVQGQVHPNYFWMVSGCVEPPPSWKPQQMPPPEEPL

SMILES | Ki (Sphingosine kinase 1) [µM] | Ki (Sphingosine kinase 2) [µM]
CCCCCCCCCCCCc1cccc(-c2noc(C3(C(=N)N)CC3)n2)c1 | 0.04 | 14.1
CCCCCCCCCCCc1cccc(-c2noc(C3(C(=N)N)CC3)n2)c1 | 0.07 | 9.9
CCCCCCCCCCCCCc1ccc(-c2noc(C3(C(=N)N)CC3)n2)cc1 | 2.5 | 11
CCCCCCCCCCCCc1ccc(-c2noc(C3(C(=N)N)CC3)n2)cc1 | 0.32 | 6
